Assay results from patent publication US7893288B2, “Poly-halogenated triazapentadiene compositions” (Board of Regents, The University of Texas System, priority 2007, dated 2011).
Where “and” joins values, the source holds several entries; their conditions need not be identical. Identical values can stand only once.

Tests used:
Assay type in all cases: cell-based
[1] = tested on: Staphylococcus aureus (ATCC 25923); experiment: Disk sensitivity test (modified Kirby-Bauer), S. aureus;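 note: Compound-loaded filter disks on LB agar plates seeded with a confluent bacterial lawn, compound dissolved in DMSO, plates kept overnight at 37 °C, then inhibition zone around disk measured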
Experimental: (§1) Filter disks were provided as sterile filter paper (about 6 mm in diameter) and spotted with 20 μL of a selected compound. Each compound was initially dissolved in dimethylsulfoxide (DMSO); any subsequent dilutions were also made in DMSO. Each filter was placed on an LB agar plate spread with 100 μL of a bacterial culture that had been grown overnight in suitable LB broth. Plates were incubated overnight at 37° C., after which, the extent of growth inhibition around each filter disk was measured. Bacterial strains included Staphylococcus aureus (ATCC 25923), Pseudomonas aeruginosa PAO1, Bacillus subtilis W168 and Escherichia coli HB101. […] The latter two strains are non-pathogenic Gram-positive and Gram-negative bacterial strains, respectively.

[2] = tested on: Bacillus subtilis W168; experiment: Disk sensitivity test (modified Kirby-Bauer), B. subtilis;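 note: Compound-loaded filter disks on LB agar plates seeded with a bacterial lawn, plates held overnight at 37 °C, then the clear zone around each disk measured, compounds in DMSO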
Experimental: as §1

[3] = tested on: Pseudomonas aeruginosa PAO1; experiment: Disk sensitivity test (modified Kirby-Bauer), P. aeruginosa;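 note: Compound-loaded filter disks on LB agar lawns, DMSO as solvent, zone of inhibition around each disk read after overnight incubation at 37 °C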
Experimental: as §1

[4] = tested on: Escherichia coli HB101; experiment: Disk sensitivity test (modified Kirby-Bauer), E. coli;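 note: filter disk loaded with compound in DMSO laid on an LB agar bacterial lawn, kept overnight at 37 °C, then the inhibition zone around the disk is measured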
Experimental: as §1

[5] = tested on: Staphylococcus aureus (ATCC 25923); experiment: Minimum inhibitory concentration in LB broth, S. aureus; conditions: for Relative to AgNO3: efficacy per mole from MIC values
[6] = tested on: Bacillus subtilis W168; experiment: Minimum inhibitory concentration in LB broth, B. subtilis; conditions: for Relative to AgNO3: efficacy per mole from MIC values
[7] = tested on: Pseudomonas aeruginosa PAO1; experiment: Minimum inhibitory concentration in LB broth, P. aeruginosa; conditions: for Relative to AgNO3: efficacy per mole from MIC values
[8] = tested on: Escherichia coli HB101; experiment: Minimum inhibitory concentration in LB broth, E. coli; conditions: for Relative to AgNO3: efficacy per mole from MIC values;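 for all read-outs here: broth dilution MIC, test compounds first taken up in DMSO, then serially diluted in LB medium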
[9] = tested on: Gram positive and Gram negative bacteria; experiment: Antimicrobial activity, summary of TABLES 16-18
Experimental: The new class of fluorinated triazapentadiene compounds with and without metal complexation as described herein were analyzed for antibacterial activity against several bacterial strains (both Gram positive and Gram negative). Methods for antimicrobial analysis included a modified Kirby-Bauer method and a determination of their minimum inhibitory concentrations. In brief, the modified Kirby-Bauer method relied on placement of a filter disk impregnated with a desired compound on a solid growth medium. Bacteria were grown to a confluent lawn and the extent of growth inhibition was measured (e.g., as an extent/percentage of a clear zone on the disk and/or solid medium).
For MIC assessment, compounds were initially dissolved in DMSO and serial dilutions of soluble compounds were made in LB broth.

[10] = 1.00 × 10^0 μg/ml (printed 5.9 × 10^−6 mM)
[11] = 1.00 × 10^1 μg/ml (5.9 × 10^−5 mM)
[12] = 1.00 × 10^2 μg/ml (5.9 × 10^−4 mM [sic])
[13] = 1.00 × 10^3 μg/ml (printed 5.9 × 10^−3 mM)
[14] = 1.00 × 10^4 μg/ml (printed 5.9 × 10^−2 mM)

## FC(F)(F)C(F)(F)C(F)(F)C(=Nc1c(Cl)cccc1Cl)N=C([N]([Ag])c1c(Cl)cccc1Cl)C(F)(F)C(F)(F)C(F)(F)F [[N{(C3F7)C(2,6-Cl2C6H3)N}2]Ag]
[1]; 5.7 × 10^0 mM
  Diameter of the zone of growth inhibition: 16.5 mm
[1]; 5.7 × 10^1 mM
  Diameter of the zone of growth inhibition: 20.0 mm
[1]; 5.7 × 10^−1 mM
  Diameter of the zone of growth inhibition: 15.0 mm
[1]; 5.7 × 10^−2 mM
  Diameter of the zone of growth inhibition: 14.5 mm
[1]; 5.7 × 10^−3 mM
  Diameter of the zone of growth inhibition: 11.0 mm
[1]; 5.7 × 10^−4 mM
  Diameter of the zone of growth inhibition: 6.0 (NZ) mm
[1]; 5.7 × 10^−5 mM
  Diameter of the zone of growth inhibition: 6.0 (NZ) mm
[2]; 5.7 × 10^0 mM
  Diameter of the zone of growth inhibition: 21.0 mm
[2]; 5.7 × 10^1 mM
  Diameter of the zone of growth inhibition: 19.5 mm
[2]; 5.7 × 10^−1 mM
  Diameter of the zone of growth inhibition: 18.0 mm
[2]; 5.7 × 10^−2 mM
  Diameter of the zone of growth inhibition: 19.0 mm
[2]; 5.7 × 10^−3 mM
  Diameter of the zone of growth inhibition: 12.0 mm
[2]; 5.7 × 10^−4 mM
  Diameter of the zone of growth inhibition: 6.0 (NZ) mm
[2]; 5.7 × 10^−5 mM
  Diameter of the zone of growth inhibition: 6.0 (NZ) mm
[3]; 5.7 × 10^0 mM
  Diameter of the zone of growth inhibition: 13.5 mm
[3]; 5.7 × 10^1 mM
  Diameter of the zone of growth inhibition: 15.0 mm
[3]; 5.7 × 10^−1 mM
  Diameter of the zone of growth inhibition: 10.0 mm
[3]; 5.7 × 10^−2 mM
  Diameter of the zone of growth inhibition: 7.0 mm
[3]; 5.7 × 10^−3 mM
  Diameter of the zone of growth inhibition: 6.0 (NZ) mm
[4]; 5.7 × 10^0 mM
  Diameter of the zone of growth inhibition: 16.0 mm
[4]; 5.7 × 10^1 mM
  Diameter of the zone of growth inhibition: 15.5 mm
[4]; 5.7 × 10^−1 mM
  Diameter of the zone of growth inhibition: 11.0 mm
[4]; 5.7 × 10^−2 mM
  Diameter of the zone of growth inhibition: 9.0 mm
[4]; 5.7 × 10^−3 mM
  Diameter of the zone of growth inhibition: 7.0 mm
[5]
  MIC: 0.853 μg/ml and 1.12 × 10^−2 mM
  Relative to AgNO3: 69.43
[6]
  MIC: 4.27 × 10^−1 μg/ml and 5.31 × 10^−4 mM
  Relative to AgNO3: 276.84
[7]
  MIC: 72.20 μg/ml and 8.98 × 10^−2 mM
  sensitivity of the bacteria to the compound (in words): most sensitive
  Relative to AgNO3: 2.05 × 10^−1
[8]
  MIC: 72.20 μg/ml and 8.98 × 10^−2 mM
  sensitivity of the bacteria to the compound (in words): most sensitive
  Relative to AgNO3: 6.56 × 10^−1
[9]
  antimicrobial activity (in words): Effective

## FC(F)(F)C(F)(F)C(F)(F)C(=Nc1c(Cl)cccc1Cl)N=C(Nc1c(Cl)cccc1Cl)C(F)(F)C(F)(F)C(F)(F)F [[N{(C3F7)C(2,6-Cl2C6H3)N}2]H]
[1]; 5.7 × 10^0 mM
  Diameter of the zone of growth inhibition: 20.0 mm
[1]; 5.7 × 10^1 mM
  Diameter of the zone of growth inhibition: 13.0 mm
[1]; 5.7 × 10^−1 mM
  Diameter of the zone of growth inhibition: 16.0 mm
[1]; 5.7 × 10^−2 mM
  Diameter of the zone of growth inhibition: 15.0 mm
[1]; 5.7 × 10^−3 mM
  Diameter of the zone of growth inhibition: 7.0 mm
[1]; 5.7 × 10^−4 mM
  Diameter of the zone of growth inhibition: 7.0 mm
[1]; 5.7 × 10^−5 mM
  Diameter of the zone of growth inhibition: 8.0 mm
[1]; 5.7 × 10^−6 mM
  Diameter of the zone of growth inhibition: 6.0 (NZ) mm
[1]; 5.7 × 10^−7 mM
  Diameter of the zone of growth inhibition: 6.0 (NZ) mm
[2]; 5.7 × 10^0 mM
  Diameter of the zone of growth inhibition: 19.0 mm
[2]; 5.7 × 10^1 mM
  Diameter of the zone of growth inhibition: 21.0 mm
[2]; 5.7 × 10^−1 mM
  Diameter of the zone of growth inhibition: 18.5 mm
[2]; 5.7 × 10^−2 mM
  Diameter of the zone of growth inhibition: 19.0 mm
[2]; 5.7 × 10^−3 mM
  Diameter of the zone of growth inhibition: 13.0 mm
[2]; 5.7 × 10^−4 mM
  Diameter of the zone of growth inhibition: 8.5 mm
[2]; 5.7 × 10^−5 mM
  Diameter of the zone of growth inhibition: 7.0 mm
[2]; 5.7 × 10^−6 mM
  Diameter of the zone of growth inhibition: 7.5 mm
[2]; 5.7 × 10^−7 mM
  Diameter of the zone of growth inhibition: 6.0 (NZ) mm
[3]; 5.7 × 10^0 mM
  Diameter of the zone of growth inhibition: 8.0 mm
[3]; 5.7 × 10^1 mM
  Diameter of the zone of growth inhibition: 9.0 mm
[3]; 5.7 × 10^−1 mM
  Diameter of the zone of growth inhibition: 8.0 mm
[3]; 5.7 × 10^−2 mM
  Diameter of the zone of growth inhibition: 8.0 mm
[3]; 5.7 × 10^−3 mM
  Diameter of the zone of growth inhibition: 7.0 mm
[4]; 5.7 × 10^0 mM
  Diameter of the zone of growth inhibition: 8.0 mm
[4]; 5.7 × 10^1 mM
  Diameter of the zone of growth inhibition: 9.0 mm
[4]; 5.7 × 10^−1 mM
  Diameter of the zone of growth inhibition: 8.0 mm
[4]; 5.7 × 10^−2 mM
  Diameter of the zone of growth inhibition: 8.0 mm
[4]; 5.7 × 10^−3 mM
  Diameter of the zone of growth inhibition: 6.0 (NZ) mm
[5]
  MIC: 7.80 μg/ml and 2.12 × 10^−3 mM
  Relative to AgNO3: 6.57
[6]
  MIC: 4.27 × 10^−1 μg/ml and 4.59 × 10^−4 mM
  Relative to AgNO3: 320.26
[7]
  MIC: >16671.80 μg/ml and >23.92 mM
  Relative to AgNO3: <7.69 × 10^−4
[8]
  MIC: >16671.80 μg/ml and >23.92 mM
  Relative to AgNO3: <2.46 × 10^−3
[9]
  antimicrobial activity (in words): Effective

## O=[N+]([O-])[O-].[Ag+] [AgNO3, reference compound]
[1]; [10]
  Diameter of the zone of growth inhibition: 6.0 (NZ) mm
[1]; [11]
  Diameter of the zone of growth inhibition: 7.0 mm
[1]; [12]
  Diameter of the zone of growth inhibition: 8.5 mm
[1]; [13]
  Diameter of the zone of growth inhibition: 9.0 mm
[1]; [14]
  Diameter of the zone of growth inhibition: 10.5 mm
[2]; [10]
  Diameter of the zone of growth inhibition: 9.0 mm
[2]; [11]
  Diameter of the zone of growth inhibition: 9.5 mm
[2]; [12]
  Diameter of the zone of growth inhibition: 13.0 mm
[2]; [13]
  Diameter of the zone of growth inhibition: 13.0 mm
[2]; (printed 5.9 × 10^−2 mM)
  Diameter of the zone of growth inhibition: 16.0 mm
[3]; [10]
  Diameter of the zone of growth inhibition: 6.0 (NZ) mm
[3]; [11]
  Diameter of the zone of growth inhibition: 6.0 (NZ) mm
[3]; [12]
  Diameter of the zone of growth inhibition: 9.5 mm
[3]; [13]
  Diameter of the zone of growth inhibition: 12.5 mm
[3]; [14]
  Diameter of the zone of growth inhibition: 16.0 mm
[4]; [10]
  Diameter of the zone of growth inhibition: 7.0 mm
[4]; [11]
  Diameter of the zone of growth inhibition: 8.5 mm
[4]; [12]
  Diameter of the zone of growth inhibition: 13.0 mm
[4]; [13]
  Diameter of the zone of growth inhibition: 14.0 mm
[4]; [14]
  Diameter of the zone of growth inhibition: 15.0 mm
[5]
  MIC: 12.50 μg/ml and 7.36 × 10^−2 mM
  Relative to AgNO3: 1.00
[6]
  MIC: 25.00 μg/ml and 1.47 × 10^−1 mM
  Relative to AgNO3: 1.00
[7]
  MIC: 3.12 μg/ml and 1.84 × 10^−2 mM
  Relative to AgNO3: 1.00
[8]
  MIC: 10.0 μg/ml and 5.89 × 10^−2 mM
  Relative to AgNO3: 1.00
